Test results published in patent publication US20080233132A1, “MULTIPLE SCLEROSIS THERAPY” (priority 2006, published 2008).

Experiments:
[1] = biological target: T1, γ-secretase (Homo sapiens, UniProt P49768); conditions: displacement assay; cited from earlier work
[2] = test system: T cells; conditions: Minter et al. 2005; cited from earlier work
[3] = test system: EAE animals; assay: LY411575 injected into EAE animals; assay type: in vivo
Protocol: When LY411575 was injected into EAE animals, the severity of EAE was decreased.

[4] = test system: CD4+ T cells; assay: cell-culture assay of T cell proliferation and Th1 differentiation; assay type: cell-based
[5] = test system: EAE; conditions: injected prior to disease onset; Minter et al. 2005; cited from earlier work
[6] = biological target: T1, γ-secretase; conditions: recombinant APP C100 substrate; Takahashi et al. 2003; cited from earlier work
[7] = test system: aged rats; conditions: total dose infused i.v.=1 ug, Fischer et al. 1987; cited from earlier work
[8] = test system: MS patients; conditions: some, but not all, onsets approximately six months following the onset of therapy; cited from earlier work
[9] = test system: EAE; conditions: Sanna et al. 2006; cited from earlier work

Compound: C[C@H](NC(=O)Cc1cc(F)cc(F)c1)C(=O)N[C@H](C(=O)OC(C)(C)C)c1ccccc1 [DAPT]
- competition for the γ-secretase active site [1]: compete moderately

Compound: C[C@H](NC(=O)[C@@H](O)c1cc(F)cc(F)c1)C(=O)N[C@@H]1C(=O)N(C)c2ccccc2-c2ccccc21 [LY411575]
- Th1 differentiation in vitro [2]: decreased
- effect on T cell proliferation [2]: no effect
- severity of EAE [3]: decreased
- amount of T cell differentiation of the inflammatory Th1 subset of CD4+ T cells [4]: decreased
- effect on T cell proliferation [4]: no observed effect
- severity of EAE [5]: lessened

Compound: CSc1ccc(/C=C2/C(C)=C(CC(=O)O)c3cc(F)ccc32)cc1 [sulindac sulfide]
- γ-secretase activity [6]: preferentially inhibits

Compound: NGF: nerve growth factor
- cholinergic neuron atrophy and spatial memory impairment [7]: ameliorate

Compound: glatiramer acetate [GA]
- clinical relapses [8]: modest reduction
- progression of EAE [9]: block progression
